{"source": "paper PMC5218480", "about": "(PLoS ONE, 2017)", "test_system": "MV-4-11 cells", "test": "Gene expression microarray analysis (Affymetrix PrimeView) and GSEA", "type": "cell-based, human", "design": "RFU PODN (11730768_x_at) / Fold change /veh PODN (11730768_x_at) / RFU LINC00158 (11744669_a_at) / Fold change /veh LINC00158 (11744669_a_at) / RFU DUSP10 (11751237_a_at) / Fold change /veh DUSP10 (11751237_a_at) / RFU ID3 (11757404_x_at) / Fold change /veh ID3 (11757404_x_at) / RFU PLEKHG5 (11737974_s_at) / Fold change /veh PLEKHG5 (11737974_s_at) / RFU LRRC4B (11730491_at) / Fold change /veh LRRC4B (11730491_at) / RFU GIMAP4 (11747438_a_at) / Fold change /veh GIMAP4 (11747438_a_at) / RFU KRT8 (11758183_x_at) / Fold change /veh KRT8 (11758183_x_at) / RFU CNN1 (11734310_a_at) / Fold change /veh CNN1 (11734310_a_at) / RFU VPS37D (11726825_at) / Fold change /veh VPS37D (11726825_at) / RFU C10orf10 (11716522_x_at) / Fold change /veh C10orf10 (11716522_x_at) / RFU KIR2DL2 /// KIR2DL4 /// KIR2DL5A /// KIR2DL5B /// KIR2DS1 /// KIR2DS2 /// KIR2DS3 /// KIR2DS4 /// KIR3DL3 /// KIR3DL3 /// KIR3DS1 (11738374_at) / Fold change /veh KIR2DL2 /// KIR2DL4 /// KIR2DL5A /// KIR2DL5B /// KIR2DS1 /// KIR2DS2 /// KIR2DS3 /// KIR2DS4 /// KIR3DL3 /// KIR3DL3 /// KIR3DS1 (11738374_at) / RFU C1QL1 (11718748_at) / Fold change /veh C1QL1 (11718748_at) / RFU TMPRSS4 (11747572_a_at) / Fold change /veh TMPRSS4 (11747572_a_at) / RFU HAMP (11756126_x_at) / Fold change /veh HAMP (11756126_x_at) / RFU RNFT2 (11725882_a_at) / Fold change /veh RNFT2 (11725882_a_at) / RFU NR4A2 (11747474_a_at) / Fold change /veh NR4A2 (11747474_a_at) / RFU ABCC12 (11746883_a_at) / Fold change /veh ABCC12 (11746883_a_at) / RFU TMEM136 (11760407_x_at) / Fold change /veh TMEM136 (11760407_x_at) / RFU CLDN22 /// WWC2 (11732394_at) / Fold change /veh CLDN22 /// WWC2 (11732394_at) / RFU HLA-DPB1 (11760878_x_at) / Fold change /veh HLA-DPB1 (11760878_x_at) / RFU SPINT1 (11716480_a_at) / Fold change /veh SPINT1 (11716480_a_at) / RFU GAP43 (11754022_s_at) / Fold change /veh GAP43 (11754022_s_at) / RFU A4GNT (11735810_at) / Fold change /veh A4GNT (11735810_at) / RFU PRB3 (11715151_x_at) / Fold change /veh PRB3 (11715151_x_at) / RFU TUBB4B (11761932_at) / Fold change /veh TUBB4B (11761932_at) / RFU CAPN14 (11732068_a_at) / Fold change /veh CAPN14 (11732068_a_at) / RFU TMCC2 (11721928_a_at) / Fold change /veh TMCC2 (11721928_a_at) / RFU IRGQ (11745062_a_at) / Fold change /veh IRGQ (11745062_a_at) / RFU FAM174B (11720279_a_at) / Fold change /veh FAM174B (11720279_a_at) / RFU TMPRSS4 (11748680_a_at) / Fold change /veh TMPRSS4 (11748680_a_at) / RFU FAM212B (11763350_a_at) / Fold change /veh FAM212B (11763350_a_at) / RFU PLEKHG5 (11743358_a_at) / Fold change /veh PLEKHG5 (11743358_a_at) / RFU ZSCAN30 (11745921_a_at) / Fold change /veh ZSCAN30 (11745921_a_at) / RFU CMKLR1 (11741424_a_at) / Fold change /veh CMKLR1 (11741424_a_at) / RFU LOC101060620 /// MAPK8IP1 (11723275_at) / Fold change /veh LOC101060620 /// MAPK8IP1 (11723275_at) / RFU SPTSSB (11747773_x_at) / Fold change /veh SPTSSB (11747773_x_at) / RFU PRSS12 (11739890_at) / Fold change /veh PRSS12 (11739890_at) / RFU BIN1 (11741810_x_at) / Fold change /veh BIN1 (11741810_x_at) / RFU WNT11 (11732464_a_at) / Fold change /veh WNT11 (11732464_a_at) / RFU C10orf10 (11716521_a_at) / Fold change /veh C10orf10 (11716521_a_at) / RFU C5orf56 (11738089_at) / Fold change /veh C5orf56 (11738089_at) / RFU CYB561 (11721691_x_at) / Fold change /veh CYB561 (11721691_x_at) / RFU ANKRD19P (11752326_a_at) / Fold change /veh ANKRD19P (11752326_a_at) / RFU OR2T12 /// OR2T33 /// OR2T8 (11738714_s_at) / Fold change /veh OR2T12 /// OR2T33 /// OR2T8 (11738714_s_at) / RFU VCAN (11748164_a_at) / Fold change /veh VCAN (11748164_a_at) / RFU JSRP1 (11732532_at) / Fold change /veh JSRP1 (11732532_at) / RFU KRTAP10-11 (11738290_x_at) / Fold change /veh KRTAP10-11 (11738290_x_at) / RFU MYO3A (11730013_a_at) / Fold change /veh MYO3A (11730013_a_at) / RFU EBF3 (11725865_a_at) / Fold change /veh EBF3 (11725865_a_at) / RFU CAMK2N1 (11719241_x_at) / Fold change /veh CAMK2N1 (11719241_x_at) / RFU C5orf56 (11738088_a_at) / Fold change /veh C5orf56 (11738088_a_at) / RFU OLFML3 (11715873_a_at) / Fold change /veh OLFML3 (11715873_a_at) / RFU LOC100653217 /// NTM (11731650_a_at) / Fold change /veh LOC100653217 /// NTM (11731650_a_at) / RFU MAPK11 (11762145_a_at) / Fold change /veh MAPK11 (11762145_a_at) / RFU FIZ1 (11724087_x_at) / Fold change /veh FIZ1 (11724087_x_at) / RFU OASL (11726364_x_at) / Fold change /veh OASL (11726364_x_at) / RFU SOX15 (11748057_x_at) / Fold change /veh SOX15 (11748057_x_at) / RFU CD79A (11719716_a_at) / Fold change /veh CD79A (11719716_a_at) / RFU HIST1H1D (11736915_at) / Fold change /veh HIST1H1D (11736915_at) / RFU CASKIN2 (11723855_a_at) / Fold change /veh CASKIN2 (11723855_a_at) / RFU LOC730098 (11760151_x_at) / Fold change /veh LOC730098 (11760151_x_at) / RFU OR4N2 (11742367_at) / Fold change /veh OR4N2 (11742367_at) / RFU PRRT2 (11749266_a_at) / Fold change /veh PRRT2 (11749266_a_at) / RFU SNX32 (11753110_a_at) / Fold change /veh SNX32 (11753110_a_at) / RFU CDHR5 (11726645_a_at) / Fold change /veh CDHR5 (11726645_a_at) / RFU RCAN1 (11760418_a_at) / Fold change /veh RCAN1 (11760418_a_at) / RFU FAM167A (11723789_a_at) / Fold change /veh FAM167A (11723789_a_at) / RFU FAM26E (11764081_at) / Fold change /veh FAM26E (11764081_at) / RFU ISYNA1 (11749810_s_at) / Fold change /veh ISYNA1 (11749810_s_at) / RFU ACY1 (11761880_at) / Fold change /veh ACY1 (11761880_at) / RFU 11764098_at / Fold change /veh 11764098_at / RFU SAMD14 (11745864_x_at) / Fold change /veh SAMD14 (11745864_x_at) / RFU NPB (11741838_a_at) / Fold change /veh NPB (11741838_a_at) / RFU TMPRSS6 (11731388_a_at) / Fold change /veh TMPRSS6 (11731388_a_at) / RFU KRTAP10-2 (11738614_at) / Fold change /veh KRTAP10-2 (11738614_at) / RFU ARHGAP8 /// PRR5-ARHGAP8 (11727945_x_at) / Fold change /veh ARHGAP8 /// PRR5-ARHGAP8 (11727945_x_at) / RFU KRTAP5-7 /// NADSYN1 (11734609_at) / Fold change /veh KRTAP5-7 /// NADSYN1 (11734609_at) / RFU RASL12 (11751679_a_at) / Fold change /veh RASL12 (11751679_a_at) / RFU CDKN2B (11736163_a_at) / Fold change /veh CDKN2B (11736163_a_at) / RFU PRF1 (11729649_at) / Fold change /veh PRF1 (11729649_at) / RFU, ZNF638 /// ZNF638-IT1 / Fold change vs veh, ZNF638 /// ZNF638-IT1 / RFU, PANK3 / Fold change vs veh, PANK3 / RFU, SH3YL1 / Fold change vs veh, SH3YL1 / RFU, ZEB2 / Fold change vs veh, ZEB2 / RFU, NRIP1 / Fold change vs veh, NRIP1 / RFU, PTTG1IP / Fold change vs veh, PTTG1IP / RFU, CAPN2 / Fold change vs veh, CAPN2 / RFU, MED14 / Fold change vs veh, MED14 / RFU, SNORA58 / Fold change vs veh, SNORA58 / RFU, C1orf63 / Fold change vs veh, C1orf63 / RFU, LRRFIP1 / Fold change vs veh, LRRFIP1 / RFU, NDUFAF7 / Fold change vs veh, NDUFAF7 / RFU, SLC12A2 / Fold change vs veh, SLC12A2 / RFU, IBTK / Fold change vs veh, IBTK / RFU, ESF1 / Fold change vs veh, ESF1 / Fold change vs veh, TMEM50B / RFU, TAOK1 / Fold change vs veh, TAOK1 / RFU, ACBD3 / Fold change vs veh, ACBD3 / RFU, TMA16 / Fold change vs veh, TMA16 / RFU, RWDD3 / Fold change vs veh, RWDD3 / RFU, BCAT1 / Fold change vs veh, BCAT1 / RFU, EDEM3 / Fold change vs veh, EDEM3 / RFU, TMEM33 / Fold change vs veh, TMEM33 / RFU, WDR75 / Fold change vs veh, WDR75 / RFU, AHCTF1 / Fold change vs veh, AHCTF1 / RFU, TFRC / Fold change vs veh, TFRC / RFU, ZDHHC17 / Fold change vs veh, ZDHHC17 / RFU, NOM1 / Fold change vs veh, NOM1 / RFU, ARL8B / Fold change vs veh, ARL8B / RFU, ZBTB11 / Fold change vs veh, ZBTB11 / RFU, TAMM41 / Fold change vs veh, TAMM41 / RFU, KIAA1704 /// LOC100996395 / Fold change vs veh, KIAA1704 /// LOC100996395 / RFU, ING1 / Fold change vs veh, ING1 / RFU, TRMT61B / Fold change vs veh, TRMT61B / RFU, FUBP3 / Fold change vs veh, FUBP3 / RFU, TP53 / Fold change vs veh, TP53 / RFU, TNKS2 / Fold change vs veh, TNKS2 / RFU, ZFP14 / Fold change vs veh, ZFP14 / RFU, ACTR2 / Fold change vs veh, ACTR2 / RFU, PPP3R1 / Fold change vs veh, PPP3R1 / RFU, PIK3R1 / Fold change vs veh, PIK3R1 / RFU, HNRNPA1 / Fold change vs veh, HNRNPA1 / RFU, RNF170 / Fold change vs veh, RNF170 / RFU, ZNF28 / Fold change vs veh, ZNF28 / RFU, RNGTT / Fold change vs veh, RNGTT / RFU, OGT / Fold change vs veh, OGT / RFU, BRD1 / Fold change vs veh, BRD1 / RFU, MARS / Fold change vs veh, MARS / RFU, ZNF655 / Fold change vs veh, ZNF655 / RFU, FAHD1 / Fold change vs veh, FAHD1 / RFU, BDP1 / Fold change vs veh, BDP1 / RFU, LRRCC1 / Fold change vs veh, LRRCC1 / RFU, ARID1A / Fold change vs veh, ARID1A / RFU, ZNF146 / Fold change vs veh, ZNF146 / RFU, ZNF330 / Fold change vs veh, ZNF330 / RFU, GPN3 / Fold change vs veh, GPN3 / RFU, C9orf123 / Fold change vs veh, C9orf123 / RFU, N4BP2L2 / Fold change vs veh, N4BP2L2 / RFU, ARFIP1 / Fold change vs veh, ARFIP1 / RFU, FAM179B / Fold change vs veh, FAM179B / RFU, BCL10 / Fold change vs veh, BCL10 / RFU, UHRF1BP1L / Fold change vs veh, UHRF1BP1L / RFU, BET1 / Fold change vs veh, BET1 / RFU, CNOT2 / Fold change vs veh, CNOT2 / RFU, ZNF268 / Fold change vs veh, ZNF268 / Fold change vs veh, ZNF507 / RFU, DGCR2 / Fold change vs veh, DGCR2 / RFU, WDSUB1 / Fold change vs veh, WDSUB1 / Fold change vs veh, HSP90B1 /// MIR3652 / RFU, ADSS / Fold change vs veh, ADSS / RFU, GK / Fold change vs veh, GK / RFU, ZNF148 / Fold change vs veh, ZNF148 / RFU, TAF9 / Fold change vs veh, TAF9 / RFU, SLC1A5 / Fold change vs veh, SLC1A5 / RFU, SLMO2 / Fold change vs veh, SLMO2 / RFU, ABCC4 / Fold change vs veh, ABCC4 / RFU, LOC101060439 /// RAP1B / Fold change vs veh, LOC101060439 /// RAP1B / RFU, RFX7 / Fold change vs veh, RFX7 / RFU, GTPBP10 / Fold change vs veh, GTPBP10 / RFU, CNEP1R1 / Fold change vs veh, CNEP1R1 / RFU, BIVM-ERCC5 /// ERCC5 / Fold change vs veh, BIVM-ERCC5 /// ERCC5 / RFU, ILF3 / Fold change vs veh, ILF3 / RFU 11762660_at / Fold change /veh 11762660_at / RFU VCAN (11757783_s_at) / Fold change /veh VCAN (11757783_s_at) / RFU DDX43 (11728927_at) / Fold change /veh DDX43 (11728927_at) / RFU KRT8 (11758188_x_at) / Fold change /veh KRT8 (11758188_x_at) / RFU NKD1 (11759106_at) / Fold change /veh NKD1 (11759106_at) / RFU SRD5A1 (11742802_a_at) / Fold change /veh SRD5A1 (11742802_a_at) / RFU TPSAB1 /// TPSB2 (11721975_s_at) / Fold change /veh TPSAB1 /// TPSB2 (11721975_s_at) / RFU GSTM3 (11746129_a_at) / Fold change /veh GSTM3 (11746129_a_at) / RFU IL23R (11737362_x_at) / Fold change /veh IL23R (11737362_x_at) / RFU TMEM51 (11727254_a_at) / Fold change /veh TMEM51 (11727254_a_at) / RFU PIWIL2 (11732686_x_at) / Fold change /veh PIWIL2 (11732686_x_at) / RFU ORM1 (11744905_x_at) / Fold change /veh ORM1 (11744905_x_at) / RFU CCDC152 (11743942_at) / Fold change /veh CCDC152 (11743942_at) / RFU ECM1 (11717891_a_at) / Fold change /veh ECM1 (11717891_a_at) / RFU IL23R (11748794_a_at) / Fold change /veh IL23R (11748794_a_at) / RFU TNFAIP8L3 (11732012_x_at) / Fold change /veh TNFAIP8L3 (11732012_x_at) / RFU MBOAT4 (11741988_at) / Fold change /veh MBOAT4 (11741988_at) / RFU 11764193_at / Fold change /veh 11764193_at / RFU TMEM53 (11763286_at) / Fold change /veh TMEM53 (11763286_at) / RFU MAGEB2 (11727129_at) / Fold change /veh MAGEB2 (11727129_at) / RFU TMEM200A (11744735_a_at) / Fold change /veh TMEM200A (11744735_a_at) / RFU CCDC152 (11751479_a_at) / Fold change /veh CCDC152 (11751479_a_at) / RFU FAM211A (11726209_a_at) / Fold change /veh FAM211A (11726209_a_at) / RFU RGS16 (11746705_a_at) / Fold change /veh RGS16 (11746705_a_at) / RFU VCAN (11755009_s_at) / Fold change /veh VCAN (11755009_s_at) / RFU RHOB (11743442_s_at) / Fold change /veh RHOB (11743442_s_at) / RFU RGS16 (11720943_a_at) / Fold change /veh RGS16 (11720943_a_at) / RFU RGS16 (11720944_at) / Fold change /veh RGS16 (11720944_at) / RFU, VPS4B / Fold change vs veh, VPS4B / RFU, CREB1 / Fold change vs veh, CREB1 / RFU, DNAJC13 / Fold change vs veh, DNAJC13 / RFU, GNAQ / Fold change vs veh, GNAQ / RFU, CDK5R1 / Fold change vs veh, CDK5R1 / RFU, ZRANB3 / Fold change vs veh, ZRANB3 / RFU, CUL4A / Fold change vs veh, CUL4A / RFU, CCNY / Fold change vs veh, CCNY / RFU, UFL1 / Fold change vs veh, UFL1 / RFU, COG3 / Fold change vs veh, COG3 / RFU, DIAPH2 / Fold change vs veh, DIAPH2 / RFU, SKA2 / Fold change vs veh, SKA2 / RFU, AFF3 / Fold change vs veh, AFF3 / RFU, LMF1 / Fold change vs veh, LMF1 / RFU, IPO11 / Fold change vs veh, IPO11 / RFU, DFFB / Fold change vs veh, DFFB / RFU, FOXP1 / Fold change vs veh, FOXP1 / RFU, CARD8 / Fold change vs veh, CARD8 / RFU, STRN3 / Fold change vs veh, STRN3 / RFU, ADK / Fold change vs veh, ADK / RFU, RASSF2 / Fold change vs veh, RASSF2 / RFU, WIPF1 / Fold change vs veh, WIPF1 / RFU, LARP1B / Fold change vs veh, LARP1B / RFU, RASA1 / Fold change vs veh, RASA1 / RFU, RB1 / Fold change vs veh, RB1 / RFU, PPFIA1 / Fold change vs veh, PPFIA1 / RFU, MAT2A / Fold change vs veh, MAT2A / RFU, CCT5 / Fold change vs veh, CCT5 / RFU, WDR92 / Fold change vs veh, WDR92 / RFU, CUX1 / Fold change vs veh, CUX1 / RFU, TTC7A / Fold change vs veh, TTC7A / RFU, TMEM135 / Fold change vs veh, TMEM135 / RFU, DEPTOR / Fold change vs veh, DEPTOR / RFU, CPM / Fold change vs veh, CPM / RFU, DNAJB6 / Fold change vs veh, DNAJB6 / RFU, CACNA2D3 / Fold change vs veh, CACNA2D3 / RFU, DTX4 / Fold change vs veh, DTX4 / RFU, TFCP2 / Fold change vs veh, TFCP2 / RFU, GMCL1 /// GMCL1P1 / Fold change vs veh, GMCL1 /// GMCL1P1 / RFU, AEBP2 / Fold change vs veh, AEBP2 / RFU, SNHG1 /// SNORD22 /// SNORD25 /// SNORD26 /// SNORD27 /// SNORD28 /// SNORD29 /// SNORD31 / Fold change vs veh, SNHG1 /// SNORD22 /// SNORD25 /// SNORD26 /// SNORD27 /// SNORD28 /// SNORD29 /// SNORD31 / Fold change (Aza/veh), C12orf56 (ProbeSet 11735607_a_at) / Fold change (ACY-1035/veh), C12orf56 (ProbeSet 11735607_a_at) / Fold change (Aza/veh), FGFR1OP (ProbeSet 11751329_s_at) / Fold change (ACY-1035/veh), FGFR1OP (ProbeSet 11751329_s_at) / Fold change (Aza/veh), VPS36 (ProbeSet 11739960_a_at) / Fold change (ACY-1035/veh), VPS36 (ProbeSet 11739960_a_at) / RFU SYPL1 (11715823_x_at) / Fold change /veh SYPL1 (11715823_x_at) / RFU IGFBP7 (11715501_s_at) / Fold change /veh IGFBP7 (11715501_s_at) / RFU REEP3 (11722064_at) / Fold change /veh REEP3 (11722064_at) / RFU IGLL1 (11728026_x_at) / Fold change /veh IGLL1 (11728026_x_at): dose or concentration left out as unconfirmed", "details": "ProbeSet 11720269_a_at; LIST B"}
{"molecule": "Nc1ccc(-c2cccs2)cc1NC(=O)c1ccc2c(c1)cc(C1CC1)n2CCN1CCOCC1", "note": "[ACY-1035]", "values": [{"measurement": "Fold change vs veh, IBTK", "value": 0.93}]}
